# According to paper PMC3752463 (Biochemical and biophysical research communications, 2013):
# Square brackets hold non-standard residues; d marks the D form. Ends that are not written are not given here.
# Tests used:
# CXCR4 [1] = molecular target: T1, CXCR4 (Homo sapiens, UniProt P61073); conditions: ref [12], cited from earlier work; for IC50: read-out: IC50 (anti-CXCR4 mAb 12G5 competitive assay), previously reported, anti-CXCR4 mAb 12G5 competitive assay
# CXCR4 [2] = molecular target: T1, CXCR4; conditions: 12G5 CXCR4 competitive binding assay
# HIV = conditions: ref [12]; cited from earlier work
# T1 sequence (P61073 whole entry): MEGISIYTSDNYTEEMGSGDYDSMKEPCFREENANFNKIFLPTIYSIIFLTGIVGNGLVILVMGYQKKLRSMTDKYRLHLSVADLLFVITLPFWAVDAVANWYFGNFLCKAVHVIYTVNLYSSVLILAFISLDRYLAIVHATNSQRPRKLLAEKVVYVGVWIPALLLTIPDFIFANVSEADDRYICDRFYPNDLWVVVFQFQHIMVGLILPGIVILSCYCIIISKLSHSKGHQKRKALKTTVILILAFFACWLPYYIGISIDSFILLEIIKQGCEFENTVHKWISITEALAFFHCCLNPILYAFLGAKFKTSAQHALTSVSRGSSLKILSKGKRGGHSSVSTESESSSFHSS
sequence,measurement,setting,value
LGASWHRPDK ([dL]G[dA][dS][dW][dH][dR][dP][dD][dK]-NH2; N-terminus assumed; SMILES CC(C)C[C@@H](N)C(=O)NCC(=O)N[C@H](C)C(=O)N[C@H](CO)C(=O)N[C@H](Cc1c[nH]c2ccccc12)C(=O)N[C@H](Cc1c[nH]cn1)C(=O)N[C@H](CCCNC(=N)N)C(=O)N1CCC[C@@H]1C(=O)N[C@H](CC(=O)O)C(=O)N[C@H](CCCCN)C(N)=O) [DV3],IC50,CXCR4 [1],0.44 µM
LGASWHRPDK [DV3],CXCR4 binding potency relative to DV1,CXCR4 [2],about two-fold less potent than DV1
LGASWHRPDKCCLGYQKRPLP ([dL]G[dA][dS][dW][dH][dR][dP][dD][dK][dC][dC][dL]G[dY][dQ][dK][dR][dP][dL][dP]-NH2; cysteine pairing not given here) [DV1],IC50,CXCR4 [1],0.236 µM
LGASWHRPDKCCLGYQKRPLP [DV1],anti-HIV entry activity (in words),HIV,anti-HIV entry activity
same,"CXCR4 binding affinity (in words), earlier work",CXCR4 [1]; in words,moderate binding affinity with CXCR4
